We go through 18 compounds from US12371428B2 (Exelixis, Inc., priority 2019, dated 2025).

Structures are written as SMILES. Where a name gives a salt, the structure may show the parent alone. Bounds are passed on as bounds.

Assay [1] deals with Human KDR (residues 790-1356) (Homo sapiens (Human), UniProt P35968). Put plainly: Human KDR kinase assay, HTRF KinEase (Example B-2). The assay is classed as biochemical. The settings on record: protocol of Example B-2 (other compounds). A digest of the protocol:
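Ten compound concentrations (3% DMSO final) were pre-plated, then KDR (790-1356) with biotinylated peptide in Mg/Mn/DTT buffer was added; ATP at Km (4.0 μM) started a 40 min room-temperature reaction. Detection used Eu-TK antibody and SA-XL665 in EDTA buffer; activity normalized to DMSO and reference inhibitor, IC50 by logistic fit.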

For assay [2], the target named is Human MER (residues 528-999) (Homo sapiens (Human), UniProt Q12866). Put plainly: Human Mer kinase assay, HTRF KinEase (Example C-2). The assay is classed as biochemical. The note with it: protocol of Example C-2 (other compounds). In outline:
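Recombinant MER 528-999 (1 ng/well) in buffer with 5 mM MgCl2 and 1 mM DTT was reacted with biotinylated peptide and ATP at Km (40 μM) for 60 min at room temperature. EDTA stop with SA-XL665 and Eu3+ TK antibody, then 665/620 nm HTRF read; IC50 from 4-parameter fit.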
(In general: In TR-FRET formats the signal depends on donor and acceptor labels being close together.)

Assay [3] deals with Met (phospho-Met, HGF-stimulated PC-3 prostate cancer cells) (Homo sapiens (Human), UniProt P08581). In words: Met autophosphorylation ELISA in PC-3 cells (Example F). The class given is cell-based. The note with it: cellular activity; Met autophosphorylation ELISA in PC-3 cells; read-out: c-Met IC50. In outline: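 Sandwich ELISA for phospho-Met (panTyr) in PC-3 lysates. Cells starved 3 h serum-free, compound 1 h (8-pt curve, 0.3% DMSO), HGF 100 ng/mL 10 min. 100% = HGF + DMSO; 0% = HGF + reference inhibitor. IC50 by 4-parameter fit.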
On the technique in general: In an ELISA, binding on a coated surface is turned into a signal by an enzyme label.

Assay [4] concerns the target KDR (phospho-KDR, VEGF165-stimulated HUVEC cells) (Homo sapiens (Human), UniProt P35968). Put plainly: KDR autophosphorylation ELISA in HUVEC cells (Example G). The class given is cell-based. The note with it: cellular activity; KDR autophosphorylation ELISA in HUVEC cells. A digest of the protocol:
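Read-out: phospho-KDR in cell lysates by DuoSet IC ELISA, normalised between VEGF-stimulated DMSO wells (100%) and unstimulated wells (0%). Human endothelial cells were starved overnight in serum-free medium, exposed to compound for 1 h, and then pulsed with 100 ng/mL VEGF165 for 5 min.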

Chain of Human KDR (residues 790-1356) (P35968 790-1356): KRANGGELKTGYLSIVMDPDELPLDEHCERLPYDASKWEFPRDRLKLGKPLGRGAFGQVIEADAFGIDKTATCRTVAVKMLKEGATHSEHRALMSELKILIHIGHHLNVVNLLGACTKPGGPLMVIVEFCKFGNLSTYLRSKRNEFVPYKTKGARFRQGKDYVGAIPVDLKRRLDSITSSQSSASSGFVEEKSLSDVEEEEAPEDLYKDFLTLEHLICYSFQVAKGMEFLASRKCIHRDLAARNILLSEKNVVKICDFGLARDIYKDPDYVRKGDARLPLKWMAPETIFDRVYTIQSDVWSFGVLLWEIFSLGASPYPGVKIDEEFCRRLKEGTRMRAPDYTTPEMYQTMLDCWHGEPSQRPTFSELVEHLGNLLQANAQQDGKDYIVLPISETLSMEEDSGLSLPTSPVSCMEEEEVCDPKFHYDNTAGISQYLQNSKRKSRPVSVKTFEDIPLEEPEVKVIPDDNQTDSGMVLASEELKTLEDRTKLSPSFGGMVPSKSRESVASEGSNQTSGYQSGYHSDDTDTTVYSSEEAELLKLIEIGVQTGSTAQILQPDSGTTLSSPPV
Chain of Met (phospho-Met, HGF-stimulated PC-3 prostate cancer cells) (P08581 25-1390): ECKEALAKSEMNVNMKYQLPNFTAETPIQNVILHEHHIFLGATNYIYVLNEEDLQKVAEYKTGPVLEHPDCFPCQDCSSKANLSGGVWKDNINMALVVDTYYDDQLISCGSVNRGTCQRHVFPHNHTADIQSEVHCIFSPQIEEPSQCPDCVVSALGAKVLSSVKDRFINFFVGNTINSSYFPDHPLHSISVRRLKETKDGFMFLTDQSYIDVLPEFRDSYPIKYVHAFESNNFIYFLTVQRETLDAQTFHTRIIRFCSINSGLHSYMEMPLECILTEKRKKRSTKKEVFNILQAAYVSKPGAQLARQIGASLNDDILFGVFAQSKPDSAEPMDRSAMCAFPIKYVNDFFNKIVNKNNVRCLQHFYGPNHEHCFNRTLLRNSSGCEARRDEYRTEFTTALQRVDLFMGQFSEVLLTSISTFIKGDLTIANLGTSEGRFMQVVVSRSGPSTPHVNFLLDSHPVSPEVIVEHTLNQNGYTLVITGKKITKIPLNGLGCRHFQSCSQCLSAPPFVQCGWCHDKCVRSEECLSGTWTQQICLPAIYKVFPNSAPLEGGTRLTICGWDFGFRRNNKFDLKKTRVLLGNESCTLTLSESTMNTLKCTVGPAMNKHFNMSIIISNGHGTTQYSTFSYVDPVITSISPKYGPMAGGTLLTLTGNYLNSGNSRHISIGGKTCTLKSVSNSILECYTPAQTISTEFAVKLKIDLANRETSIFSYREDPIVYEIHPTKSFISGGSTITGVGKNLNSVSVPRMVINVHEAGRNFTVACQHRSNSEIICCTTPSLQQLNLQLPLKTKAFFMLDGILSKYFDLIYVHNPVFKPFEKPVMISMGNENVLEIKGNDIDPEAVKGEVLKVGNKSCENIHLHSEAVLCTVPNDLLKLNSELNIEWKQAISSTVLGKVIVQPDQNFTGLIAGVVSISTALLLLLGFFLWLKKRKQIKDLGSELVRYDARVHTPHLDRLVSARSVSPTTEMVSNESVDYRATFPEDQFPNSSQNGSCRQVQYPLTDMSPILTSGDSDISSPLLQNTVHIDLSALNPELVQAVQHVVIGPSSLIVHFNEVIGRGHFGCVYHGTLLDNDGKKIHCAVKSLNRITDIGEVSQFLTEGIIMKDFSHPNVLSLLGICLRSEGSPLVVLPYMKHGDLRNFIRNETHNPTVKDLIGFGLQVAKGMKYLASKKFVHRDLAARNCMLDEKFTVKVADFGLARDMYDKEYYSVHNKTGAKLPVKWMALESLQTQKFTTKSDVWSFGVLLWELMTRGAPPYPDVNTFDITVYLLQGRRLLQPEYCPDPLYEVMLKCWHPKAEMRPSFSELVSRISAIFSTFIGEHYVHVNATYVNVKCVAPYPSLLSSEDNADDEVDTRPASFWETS
Chain of KDR (phospho-KDR, VEGF165-stimulated HUVEC cells) (P35968 20-1356): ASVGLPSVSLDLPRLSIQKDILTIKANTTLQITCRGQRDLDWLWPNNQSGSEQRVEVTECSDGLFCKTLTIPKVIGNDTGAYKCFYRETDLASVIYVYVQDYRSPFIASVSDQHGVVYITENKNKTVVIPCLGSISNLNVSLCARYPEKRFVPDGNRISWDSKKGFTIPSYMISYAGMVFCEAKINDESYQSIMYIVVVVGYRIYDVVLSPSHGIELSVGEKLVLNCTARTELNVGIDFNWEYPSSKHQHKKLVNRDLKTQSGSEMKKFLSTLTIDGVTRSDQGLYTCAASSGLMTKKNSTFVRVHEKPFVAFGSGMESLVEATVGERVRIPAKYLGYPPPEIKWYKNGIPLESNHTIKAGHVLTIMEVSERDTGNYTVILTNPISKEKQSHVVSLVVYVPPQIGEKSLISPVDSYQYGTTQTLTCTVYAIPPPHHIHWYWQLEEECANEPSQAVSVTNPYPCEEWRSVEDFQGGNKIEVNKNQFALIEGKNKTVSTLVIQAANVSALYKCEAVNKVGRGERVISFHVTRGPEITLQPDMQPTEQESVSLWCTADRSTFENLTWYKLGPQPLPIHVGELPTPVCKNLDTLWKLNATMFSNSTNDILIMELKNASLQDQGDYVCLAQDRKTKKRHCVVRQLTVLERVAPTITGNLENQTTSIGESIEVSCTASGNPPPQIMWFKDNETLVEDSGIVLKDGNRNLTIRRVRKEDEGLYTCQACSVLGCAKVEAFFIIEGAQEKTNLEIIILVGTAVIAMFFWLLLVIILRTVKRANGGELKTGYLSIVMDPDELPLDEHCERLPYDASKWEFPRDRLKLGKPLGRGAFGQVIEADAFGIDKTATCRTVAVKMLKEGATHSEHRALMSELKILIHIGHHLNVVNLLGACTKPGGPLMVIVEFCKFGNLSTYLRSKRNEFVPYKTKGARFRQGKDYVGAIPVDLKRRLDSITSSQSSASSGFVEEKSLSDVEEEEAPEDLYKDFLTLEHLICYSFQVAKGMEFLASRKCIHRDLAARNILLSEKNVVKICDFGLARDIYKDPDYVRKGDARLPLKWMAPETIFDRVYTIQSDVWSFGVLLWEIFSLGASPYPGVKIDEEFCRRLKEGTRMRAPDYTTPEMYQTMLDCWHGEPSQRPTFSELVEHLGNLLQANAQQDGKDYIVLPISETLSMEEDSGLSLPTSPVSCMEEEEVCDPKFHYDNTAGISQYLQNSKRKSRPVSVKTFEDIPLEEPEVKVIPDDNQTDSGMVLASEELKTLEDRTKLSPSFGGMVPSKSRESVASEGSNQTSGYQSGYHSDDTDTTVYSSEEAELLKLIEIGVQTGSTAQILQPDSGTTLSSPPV
Chain of Human MER (residues 528-999) (Q12866 528-999): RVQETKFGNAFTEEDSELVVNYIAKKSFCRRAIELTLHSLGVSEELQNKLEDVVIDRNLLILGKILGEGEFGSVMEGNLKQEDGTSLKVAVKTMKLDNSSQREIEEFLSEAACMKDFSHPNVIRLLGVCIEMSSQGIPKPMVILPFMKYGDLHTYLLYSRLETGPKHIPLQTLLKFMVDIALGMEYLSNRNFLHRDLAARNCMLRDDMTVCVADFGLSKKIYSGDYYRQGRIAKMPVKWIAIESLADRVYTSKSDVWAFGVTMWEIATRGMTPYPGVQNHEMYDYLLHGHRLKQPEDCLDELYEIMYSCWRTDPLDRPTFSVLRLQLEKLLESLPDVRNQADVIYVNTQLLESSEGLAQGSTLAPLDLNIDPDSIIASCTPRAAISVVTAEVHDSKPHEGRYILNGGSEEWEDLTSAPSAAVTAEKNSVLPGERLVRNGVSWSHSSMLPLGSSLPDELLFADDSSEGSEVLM

What is called IC50 is the midpoint of a concentration-inhibition curve. Consider `COc1ccc2nccc(Oc3ccc(NC(=O)c4cnc(C)n(-c5ccc(F)cc5)c4=O)cc3F)c2n1` [Compound 232, N-[3-Fluoro-4-[(6-methoxy-1,5-naphthyridin-4-yl)oxy]phenyl]-1-(4-fluorophenyl)-2-methyl-6-oxopyrimidine-5-carboxamide], for which the IC50 in assay [1] was over 0.3 µM; in assay [2] it was under 0.1 µM; in assay [3], under 0.1 µM; in assay [4], 0.1 to 0.3 µM.
`CCc1nc(C)c(-c2ccc(F)cc2)c(O)c1C(=O)Nc1ccc(Oc2ccnc3cc(OC)c(OC)nc23)cc1` [Compound 197, N-[4-[(6,7-Dimethoxy-1,5-naphthyridin-4-yl)oxy]phenyl]-2-ethyl-5-(4-fluorophenyl)-4-hydroxy-6-methylpyridine-3-carboxamide]: the half-inhibitory concentration (IC50) in assay [1], in assay [2], in assay [3] and in assay [4] was under 0.1 µM throughout.
Regarding `COc1cnc2c(Oc3ccc(NC(=O)c4cnc(CO)c(-c5ccc(F)cc5)c4O)cc3F)ccnc2c1` [Compound 217, N-[3-Fluoro-4-[(7-methoxy-1,5-naphthyridin-4-yl)oxy]phenyl]-5-(4-fluorophenyl)-4-hydroxy-6-(hydroxymethyl)pyridine-3-carboxamide], the IC50 in assay [1] is 0.1 to 0.3 µM; in assay [2] it was under 0.1 µM; in assay [3], under 0.1 µM; in assay [4], under 0.1 µM.
For the compound `COCc1nc(C)c(-c2ccc(F)cc2)c(O)c1C(=O)Nc1ccc(Oc2ccnc3cc(OC)cnc23)cc1` [Compound 185, 5-(4-Fluorophenyl)-4-hydroxy-2-(methoxymethyl)-N-[4-[(7-methoxy-1,5-naphthyridin-4-yl)oxy]phenyl]-6-methylpyridine-3-carboxamide], the concentration for half-maximal inhibition (IC50) in assay [1], in assay [2], in assay [3] and in assay [4] was under 0.1 µM each time.
For the compound `COc1cnc2c(Oc3ccc(NC(=O)c4nnc(C)c(-c5ccc(F)cc5C)c4O)cc3F)ccnc2c1` (single isomer, unassigned) [Compound 249C, N-[3-Fluoro-4-[(7-methoxy-1,5-naphthyridin-4-yl)oxy]phenyl]-5-(4-fluoro-2-methylphenyl)-4-hydroxy-6-methylpyridazine-3-carboxamide], the IC50 was over 0.3 µM in assay [1], under 0.1 µM in assay [2], under 0.1 µM in assay [3] and under 0.1 µM in assay [4].
For `COCCOc1nc2c(Oc3ccc(NC(=O)c4c(COC)nc(C)c(-c5ccc(F)cc5C)c4O)cc3F)ccnc2cc1OC` [Compound 201, N-[3-Fluoro-4-[[7-methoxy-6-(2-methoxyethoxy)-1,5-naphthyridin-4-yl]oxy]phenyl]-5-(4-fluoro-2-methylphenyl)-4-hydroxy-2-(methoxymethyl)-6-methylpyridine-3-carboxamide], the IC50 was 0.1 to 0.3 µM in assay [1], under 0.1 µM in assay [2], under 0.1 µM in assay [3] and under 0.1 µM in assay [4].
Take `CCc1nc(C)c(-c2ccc(F)cc2C)c(O)c1C(=O)Nc1ccc(Oc2ccnc3cc(OC)c(OC)nc23)c(F)c1` [Compound 202, N-[4-[(6,7-Dimethoxy-1,5-naphthyridin-4-yl)oxy]-3-fluorophenyl]-2-ethyl-5-(4-fluoro-2-methylphenyl)-4-hydroxy-6-methylpyridine-3-carboxamide]: the IC50 was 0.1 to 0.3 µM in assay [1], under 0.1 µM in assay [2], under 0.1 µM in assay [3] and under 0.1 µM in assay [4].
As for `COc1cc2nccc(Oc3ccc(NC(=O)c4ccc(C)n(-c5ccc(F)cc5C)c4=O)cc3)c2nc1OC` [Compound 225, N-[4-[(6,7-Dimethoxy-1,5-naphthyridin-4-yl)oxy]phenyl]-1-(4-fluoro-2-methylphenyl)-6-methyl-2-oxopyridine-3-carboxamide], the IC50 in assay [1], in assay [2], in assay [3] and in assay [4] was under 0.1 µM throughout.
`COc1cnc2c(Oc3ccc(NC(=O)c4nnc(C)c(-c5ccc(F)cc5C)c4O)cc3F)ccnc2c1` (single isomer, unassigned) [Compound 249B, N-[3-Fluoro-4-[(7-methoxy-1,5-naphthyridin-4-yl)oxy]phenyl]-5-(4-fluoro-2-methylphenyl)-4-hydroxy-6-methylpyridazine-3-carboxamide]: the half-inhibitory concentration (IC50) was over 0.3 µM in assay [1], under 0.1 µM in assay [2], under 0.1 µM in assay [3] and under 0.1 µM in assay [4].
Turning to `COc1cnc2c(Oc3ccc(NC(=O)c4n[nH]c(C)c(-c5ccc(F)cc5C)c4=O)cc3)ccnc2c1` [Compound 248, 5-(4-Fluoro-2-methylphenyl)-N-[4-[(7-methoxy-1,5-naphthyridin-4-yl)oxy]phenyl]-6-methyl-4-oxo-1H-pyridazine-3-carboxamide], the half-inhibitory concentration (IC50) in assay [1] is over 0.3 µM; in assay [2], under 0.1 µM; in assay [3] it was under 0.1 µM; in assay [4], over 0.3 µM.
As to `COc1cc2nccc(Oc3ccc(NC(=O)c4cn(C(C)C)c(C)c(-c5ccc(F)cc5C)c4=O)cc3F)c2nc1OC` [Compound 32, N-[4-[(6,7-Dimethoxy-1,5-naphthyridin-4-yl)oxy]-3-fluorophenyl]-5-(4-fluoro-2-methylphenyl)-6-methyl-4-oxo-1-propan-2-ylpyridine-3-carboxamide hydrochloride], the concentration for half-maximal inhibition (IC50) in assay [1] is 0.1 to 0.3 µM; in assay [2], under 0.1 µM; in assay [3], under 0.1 µM; in assay [4], over 0.3 µM.
For the compound `COc1cnc2c(Oc3ccc(NC(=O)c4nn(C)c(C)c(-c5ccc(F)cc5)c4=O)cc3F)ccnc2c1` [Compound 250, N-[3-Fluoro-4-[(7-methoxy-1,5-naphthyridin-4-yl)oxy]phenyl]-5-(4-fluorophenyl)-1,6-dimethyl-4-oxopyridazine-3-carboxamide], the IC50 in assay [1] is over 0.3 µM; in assay [2], under 0.1 µM; in assay [3], under 0.1 µM; in assay [4], over 0.3 µM.
In the case of `COc1cnc2c(Oc3ccc(NC(=O)c4cnc(C)c(-c5ccc(F)cc5C)c4O)cc3)ccnc2c1` [Compound 176, 5-(4-Fluoro-2-methylphenyl)-4-hydroxy-N-[4-[(7-methoxy-1,5-naphthyridin-4-yl)oxy]phenyl]-6-methylpyridine-3-carboxamide], the IC50 in assay [1] was over 0.3 µM; in assay [2], under 0.1 µM; in assay [3], under 0.1 µM; in assay [4], under 0.1 µM.
On to `CCc1nc(C)c(-c2ccc(F)cc2)c(O)c1C(=O)Nc1ccc(Oc2ccnc3ccc(OC)nc23)c(F)c1` [Compound 182, 2-Ethyl-N-[3-fluoro-4-[(6-methoxy-1,5-naphthyridin-4-yl)oxy]phenyl]-5-(4-fluorophenyl)-4-hydroxy-6-methylpyridine-3-carboxamide], for which the IC50 in assay [1] was 0.1 to 0.3 µM; in assay [2] it was under 0.1 µM; in assay [3], under 0.1 µM; in assay [4], under 0.1 µM.
On to `COCc1nc(C)c(-c2ccc(F)cc2)c(O)c1C(=O)Nc1ccc(Oc2ccnc3cc(OC)c(OC)nc23)c(F)c1` [Compound 184, N-[4-[(6,7-Dimethoxy-1,5-naphthyridin-4-yl)oxy]-3-fluorophenyl]-5-(4-fluorophenyl)-4-hydroxy-2-(methoxymethyl)-6-methylpyridine-3-carboxamide], for which the IC50 in assay [1], in assay [2], in assay [3] and in assay [4] was under 0.1 µM in each case.
Turning to `COc1cc2nccc(Oc3ccc(NC(=O)c4ccc(C)n(-c5ccc(F)cc5C)c4=O)cc3F)c2nc1OC` [Compound 219, N-[4-[(6,7-Dimethoxy-1,5-naphthyridin-4-yl)oxy]-3-fluorophenyl]-1-(4-fluoro-2-methylphenyl)-6-methyl-2-oxopyridine-3-carboxamide], the IC50 in assay [1], in assay [2], in assay [3] and in assay [4] was under 0.1 µM throughout.
Turning to `COc1cc2nccc(Oc3ccc(NC(=O)c4c(C)ncc(-c5ccc(F)cc5)c4O)cc3)c2nc1OC` [Compound 235, N-[4-[(6,7-Dimethoxy-1,5-naphthyridin-4-yl)oxy]phenyl]-5-(4-fluorophenyl)-4-hydroxy-2-methylpyridine-3-carboxamide], the IC50 in assay [1], in assay [2], in assay [3] and in assay [4] was under 0.1 µM throughout.
On to `COc1cnc2c(Oc3ccc(NC(=O)c4n[nH]c(C)c(-c5ccc(F)cc5)c4=O)cc3)ccnc2c1` [Compound 245, 5-(4-Fluorophenyl)-N-[4-[(7-methoxy-1,5-naphthyridin-4-yl)oxy]phenyl]-6-methyl-4-oxo-1H-pyridazine-3-carboxamide], for which the IC50 was 0.1 to 0.3 µM in assay [1], under 0.1 µM in assay [2], under 0.1 µM in assay [3] and under 0.1 µM in assay [4].
